From article PMC2994023 (Interdisciplinary Toxicology, 2010)

Legend:
[1] = test system: rat hepatic microsomes enriched with CYP2E1; assay: Metabolism of N-(2-methoxyphenyl)hydroxylamine by hepatic microsomes of rats pre-treated with ethanol; assay type: in vitro ADME
Experimental: (§1) The study was conducted in accordance with the Regulations for the Care and Use of Laboratory Animals (311/1997, Ministry of Agriculture, Czech Republic), which complies with Declaration of Helsinki. Microsomes from livers of ten untreated rats and three rabbits were prepared by the procedure described previously (Stiborová et al., [1988]). Microsomes from the livers of ten male Wistar rats pretreated with β-NF (Stiborová et al., [1988]) were isolated as described (Stiborová et al., [1988]; [1995]), those pretreated with phenobarbital (PB) as reported by Hodek et al. ([1988]), and those pretreated with ethanol were isolated using a procedure described by Yang et al. ([1985]). Protein concentrations in the microsomal fractions were assessed using the bicinchoninic acid protein assay with bovine serum albumin as a standard (Wiechelman et al., [1988]). The concentration of CYP was estimated according to Omura and Sato ([1964]), by measuring the absorption of the complex of reduced CYP with carbon monoxide. […] The activity of NADPH:CYP reductase in rat hepatic microsomes was measured according to Sottocasa et al. ([1967]) using cytochrome c as substrate (i.e., as NADPH:cytochrome c reductase).

[2] = Incubation of N-(2-methoxyphenyl)hydroxylamine without hepatic microsomal enzymes or without NADPH (spontaneous conversion); assay type: physicochemical; details: pH 7.4, without hepatic microsomal enzymes or without NADPH
Experimental: At pH 7.4, used for microsomal incubations, their spontaneous formation was negligible.

rat hepatic microsomes = assay: Metabolism of N-(2-methoxyphenyl)hydroxylamine by hepatic microsomes of control (uninduced) rats, HPLC of metabolites; assay type: in vitro ADME; details: 1.0 mM substrate
Experimental: as §1

NADPH:CYP reductase = NADPH:CYP reductase activity in hepatic microsomes of induced rats (cytochrome c as substrate); details: hepatic microsomes of rats induced with the agent
Experimental: as §1

CYP = CYP concentration in hepatic microsomes of induced rats (CO complex of reduced CYP); details: hepatic microsomes of rats induced with the agent
Experimental: as §1

Sacchromyces cerevisiae = details: ref Brennan and Schiestl ([1997]); cited from earlier work

Row | Compound | NADPH:CYP reductase activity in hepatic microsomes (NADPH:CYP reductase) | CYP content of hepatic microsomes (CYP) | other results
1 | COc1ccccc1NO [N-(2-methoxyphenyl)hydroxylamine] |  |  | change of levels of o-anisidine versus control microsomes [1]: decreased; spontaneous formation of metabolite M1 and o-aminophenol [2]: negligible; formation of metabolite M1 (rat hepatic microsomes): negligible
2 | CCO [ethanol] | 0.201 µmol/min/mg protein | 1.8 nmol CYP/mg protein | 
3 | Nc1ccccc1O [o-aminophenol] |  |  | result in the deletion recombination assay (Sacchromyces cerevisiae): positive
4 | O=c1cc(-c2ccccc2)oc2ccc3ccccc3c12 [β-NF, β-naphthoflavone] | 0.199 µmol/min/mg protein | 1.3 nmol CYP/mg protein | 
5 | CCC1(c2ccccc2)C(=O)NC(=O)NC1=O [PB, phenobarbital] | 0.325 µmol/min/mg protein | 2.7 nmol CYP/mg protein | 
